These results are taken from US10202604B2, “Methods of using microRNA-141” (Stemirna Therapeutics Co., Ltd., priority 2016, dated 2019).

The structures appear in SMILES notation.

One experiment relates to Du145 cells. As to the kind of experiment: Boyden chamber Matrigel invasion assay. Format: cell-based, human. Conditions: 1, 2, and 5 μM for 96 h. The method, then: FIGS. 3A-3J show partial suppression of epithelial to mesenchymal transition by miR-141 and CD44 as a direct target of miR-141. FIGS. 3A-3B show qPCR analysis of epithelial to mesenchymal transition markers in bulk (FIG. 3A) or CD44^+ (FIG. 3B) Du145 cells transfected with the miR-141 oligos (30 nM; 48 h). Results were presented as the relative expression levels over the cells transfected with the NC oligos. […] GAPDH was used as control and the relative protein levels after normalizing to GAPDH and NC controls were indicated below each lane. […] Shown below is the actual sequence in the region with the mutated miR-141 binding sequence indicated in grey (below). […] Shown are representative images. […]
Du145 cells transfected with NC or miR-141 oligos at the two doses and time intervals indicated were used in Western blotting. Indicated below are relative expression levels (normalized to respective GAPDH and compared to NC) of each protein determined by densitometric scanning of the individual bands. […]
FIG. 6A: Putative binding site of miR-141 in EZH2 3′-UTR. […] Relative protein levels were measured by densitometry and normalized to GAPDH levels (indicated below). […]
For Boyden Chamber invasion assays, Biocoat Matrigel Invasion Chamber (BD, Franklin Lakes, N.J.) was employed following the manufacturer's instructions. […] Representative images were taken for each membrane and cells were counted. […]

The subject of another experiment is EZH2. As to the kind of experiment: EZH2 mRNA and protein levels. Format: cell-based, human. Conditions: Du145 cells; 1, 2, and 5 μM for 96 h. The method, then:
FIG. 6A: Putative binding site of miR-141 in EZH2 3′-UTR. […] FIG. 6C is a qPCR analysis of EZH2 mRNA levels in CD44^+ PCa cells. Bars, mean±SD. *P<0.05; **P<0.01. […] Bars, mean±SD. **P<0.01. […] Western blotting was performed in PC3 and Du145 cells transfected with NC (60 nM) or miR-141 (30 or 60 nM) oligos (72 h). Relative protein levels were measured by densitometry and normalized to GAPDH levels (indicated below). […] Du145 cells plated one day before were treated with 1, 2, and 5 μM of DZNep for 96 h and then cells were harvested for invasion assays. **P<0.01. Inset, WB showing reduced EZH2 proteins by DZNep. […] Du145 cells were transfected with 10 nM scramble siRNA (siCon) or EZH2-targeting siRNAs (siEZH2) or siEZH2 plus anti-miR-141 (30 nM). 48 h later, cells were harvested for invasion assays. Bars, mean±SD. **P<0.01. […] Du145 cells were co-transfected with 30 nM NC or miR-141 oligos together with empty vector or pCMV-EZH2 construct. After 48 h, cells were harvested for invasion assay. Bars, mean±SD. **P<0.01.
Total RNA was extracted using microRNA isolation kit (Life Technologies) according to the manufacturer's instructions. microRNA qPCRs were performed using TaqMan microRNA assays (Life Technologies). qPCR data for microRNAs were normalized to RNU48 whereas qPCR data for mRNAs were normalized to GAPDH.
For Boyden Chamber invasion assays, Biocoat Matrigel Invasion Chamber (BD, Franklin Lakes, N.J.) was employed following the manufacturer's instructions. Briefly, 100,000-200,000 of prostate cancer cells after transfection with […]/miR-141 oligos or infection with miR-141 over-expressing lentivirus were seeded into each well. Medium with 20% fetal bovine serum was used in the lower chamber as chemo-attractant. After 20 h, cells were fixed and stained using HEMA stain. Representative images were taken for each membrane and cells were counted. Migration assays were simultaneously performed in control wells using identical protocol with Transwell (Costar; 8 μl PET) without Matrigel. […]

Turning to `Cl.Nc1nccc2c1ncn2[C@@H]1C=C(CO)[C@@H](O)[C@H]1O` [DZNep, 3-Deazaneplanocin A hydrochloride, reference compound], the Du145 cell invasion result in the experiment on Du145 cells is listed as “blocked”. In addition, the EZH2 protein result in the experiment with EZH2 is “reduced”.
